Measured values as given in patent US20260240976A1, “T[…] VACCINES BASED ON VALIDATED TARGET EPITOPES” (Deutsches Krebsforschungszentrum Stiftung des öffentlichen …, priority 2023, published 2026).

Tests used:
[1] = test system: short-term antigen-specific T cell lines generated from PBMCs; assay: Interferon-γ ELISpot assay on short-term antigen-specific T cell lines; format: cell-based, human; settings: for rates of immunoactivation in PBMC samples, CD8 T cell responses and/or numbers of HPV16 positive cell lines presenting the peptide as HLA-complexes: comparison among the peptides in Table 1
[2] = test system: peptide-specific T cell cultures; assay: T cell phenotyping and intracellular cytokine staining (IFN-gamma, TNF-alpha); format: cell-based, human; parameters: key: +: cytokine: Immunogenicity of the peptide shown by intracellular cytokine staining (IFN-gamma, TNF-alpha); +*: *highlights data from published resources.; *highlights data from published resources
Procedure: To characterize and quantify the responsive cells upon peptide stimulation, the peptide-specific T cell cultures with positive ELISpot results were further analyzed with T cell phenotyping and intracellular cytokine staining (ICS) assessed by flow cytometry.
The cells of the respective continued short-term T cell culture as well as the DMSO-stimulated and an unresponsive T cell line were harvested into 2 mL reaction tubes and centrifuged at 400×g for 10 min. The supernatant was discarded and the pellet of the unresponsive T cell line was resuspended in 100 μL ELISpot medium and used as unstimulated and unstained control. The pellets of the responsive and the DMSO-stimulated T cell lines were resuspended in 200 μL ELISpot medium and split equally into two wells of a V-bottom 96-well plate. One well of the responsive T cell lines was re-stimulated with 10 μg/mL of its specific peptide while the other well was mock stimulated with 0.1% (v/v) DMSO. As positive control, one well of the DMSO-stimulated T cell line was activated by treatment with 20 ng/ml Phorbol 12-myristate 13-acetate and 1 μM lonomycin. Then, 1:10 diluted GolgiStop (containing monensin) and 1:15 diluted GolgiPlug (containing brefeldin A) were added to all wells to inhibit intracellular transport processes. Monensin inhibits the trans-Golgi transport, while brefeldin A inhibits transport between the ER and the Golgi (Chardin and McCormick, 1999; Mollenhauer et al., 1990). The stimulated cells were incubated for 5 h at standard culture conditions.
After incubation, the cells were resuspended, centrifuged at 400×g for 5 min and the supernatant was discarded. Then, the cells were resuspended in 50 μL cold staining buffer (unstained) or 50 μL cold staining buffer containing the phenotyping antibodies against CD3, CD4, CD8 and the LIVE/DEAD™ Fixable Near-IR Dead Cell Stain (unstimulated and stimulated) and incubated at 4° C. for 30 min. After the surface staining, the cells were washed twice with 200 μL staining buffer and centrifugation at 1400 rpm, followed by fixation with 1% paraformaldehyde (PFA) solution for 15 min at 4° C. All following centrifugation steps were carried out at 1400 rpm for 5 min. After fixation, the cells were again washed twice with 200 μL cold staining buffer and were then resuspended in 100 μL 1× perm/wash buffer diluted in PBS (provided is 10×) for 15 min at 4° C. for cell membrane permeabilization. Subsequently, the plate was centrifuged and the supernatant was discarded. The cells were resuspended in 50 μL perm/wash buffer diluted in PBS (unstained) or 50 μL perm/wash buffer containing the intracellular cytokine antibodies against IFNγ, TNFα and granzyme B (unstimulated and stimulated) for 30 min at 4° C. After intracellular cytokine staining, the cells were washed twice with 200 μL 1× perm/wash buffer. Then 100 μL fix/perm solution (provided in the BD Cytofix/Cytoperm kit) were added per well. After 20 min of incubation at 4° C., the cells of each well were washed twice with 200 μL 1× perm/wash buffer before being resuspended in 100 μL staining buffer and stored at 4° C. overnight.
OneComp eBeads™ (eBeads) and ArC™ Amine Reactive Compensation beads (ArC beads) were stained as compensation controls. For each antibody, 50 μL of the eBeads suspension were stained with the same dilution as used for staining the cells. The ArC beads were stained with 1 μL LIVE/DEAD™ Fixable Near-IR Dead Cell Stain stock solution in 50 μL staining buffer. The beads were incubated at 4° C. for 30 min and were then washed two times with 1 mL staining buffer and centrifugation at 400×g. Finally, the stained beads were resuspended in 400 μL staining buffer, one drop of ArC™ negative beads was added to the labelled ArC beads, and all beads were stored at 4° C. overnight.
On the next day, the samples and the single stained compensation controls were acquired at a BD FACS Canto™ II analyzer using the BD FACS Diva Software Version 6. […]

110 (GQAEPDRAHY; Human papillomavirus 16) [compound 110]
ELISpot: Immungenicity of the peptide shown by IFN-gamma ELISPOT analysis ([1]; HLA restriction B15): +
cytokine: Immunogenicity of the peptide shown by intracellular cytokine staining (IFN-gamma, TNF-alpha) ([2]; HLA restriction B15): +

60 (AFRDLCIVYR; Human papillomavirus 16) [compound 60]
ELISpot: Immungenicity of the peptide shown by IFN-gamma ELISPOT analysis ([1]; HLA restriction A11): +
cytokine: Immunogenicity of the peptide shown by intracellular cytokine staining (IFN-gamma, TNF-alpha) ([2]; HLA restriction A11): +

6 (DLQPETTDLY; Human papillomavirus 16) [compound 6]
ELISpot: Immungenicity of the peptide shown by IFN-gamma ELISPOT analysis ([1]; HLA restriction A01): +
cytokine: Immunogenicity of the peptide shown by intracellular cytokine staining (IFN-gamma, TNF-alpha) ([2]; HLA restriction A01): +

3 (TIHDIILQCVY; Human papillomavirus 16) [compound 3]
ELISpot: Immungenicity of the peptide shown by IFN-gamma ELISPOT analysis ([1]; HLA restriction A01): +
cytokine: Immunogenicity of the peptide shown by intracellular cytokine staining (IFN-gamma, TNF-alpha) ([2]; HLA restriction A01): +

7 (TTDLYCYEQ; Human papillomavirus 16) [compound 7]
ELISpot: Immungenicity of the peptide shown by IFN-gamma ELISPOT analysis ([1]; HLA restriction A01): +
cytokine: Immunogenicity of the peptide shown by intracellular cytokine staining (IFN-gamma, TNF-alpha) ([2]; HLA restriction A01): +

92 (HYCYSLYGTTL; Human papillomavirus 16) [compound 92]
ELISpot: Immungenicity of the peptide shown by IFN-gamma ELISPOT analysis ([1]; HLA restriction A24): +
cytokine: Immunogenicity of the peptide shown by intracellular cytokine staining (IFN-gamma, TNF-alpha) ([2]; HLA restriction A24): +

89 (HYNIVTFCC; Human papillomavirus 16) [compound 89]
ELISpot: Immungenicity of the peptide shown by IFN-gamma ELISPOT analysis ([1]; HLA restriction A24): +
cytokine: Immunogenicity of the peptide shown by intracellular cytokine staining (IFN-gamma, TNF-alpha) ([2]; HLA restriction A24): +

59 (FAFRDLCIVYR; Human papillomavirus 16) [compound 59]
ELISpot: Immungenicity of the peptide shown by IFN-gamma ELISPOT analysis ([1]; HLA restriction A11): +
cytokine: Immunogenicity of the peptide shown by intracellular cytokine staining (IFN-gamma, TNF-alpha) ([2]; HLA restriction A11): +

141 (RPRKLPDLCT; Human papillomavirus 16) [compound 141]
ELISpot: Immungenicity of the peptide shown by IFN-gamma ELISPOT analysis ([1]; HLA restriction B07): +
cytokine: Immunogenicity of the peptide shown by intracellular cytokine staining (IFN-gamma, TNF-alpha) ([2]; HLA restriction B07): +

97 (RPRKLPQL; Human papillomavirus 16) [compound 97]
ELISpot: Immungenicity of the peptide shown by IFN-gamma ELISPOT analysis ([1]; HLA restriction B07): +
rates of immunoactivation in PBMC samples, CD8 T cell responses and/or numbers of HPV16 positive cell lines presenting the peptide as HLA-complexes [1]: highest rates of immunoactivation in PBMC samples, to induce the strongest CD8 T cell responses, and/or shown to be presented as HLA-complexes by the highest numbers of HPV16 positive cell lines
cytokine: Immunogenicity of the peptide shown by intracellular cytokine staining (IFN-gamma, TNF-alpha) ([2]; HLA restriction B07): +

4 (YGVCDKCLKFY; Human papillomavirus 16) [compound 4]
ELISpot: Immungenicity of the peptide shown by IFN-gamma ELISPOT analysis ([1]; HLA restriction A01): +
cytokine: Immunogenicity of the peptide shown by intracellular cytokine staining (IFN-gamma, TNF-alpha) ([2]; HLA restriction A01): +

108 (AFRDLCIVY; Human papillomavirus 16) [compound 108]
ELISpot: Immungenicity of the peptide shown by IFN-gamma ELISPOT analysis ([1]; HLA restriction B15): +
rates of immunoactivation in PBMC samples, CD8 T cell responses and/or numbers of HPV16 positive cell lines presenting the peptide as HLA-complexes [1]: highest rates of immunoactivation in PBMC samples, to induce the strongest CD8 T cell responses, and/or shown to be presented as HLA-complexes by the highest numbers of HPV16 positive cell lines
cytokine: Immunogenicity of the peptide shown by intracellular cytokine staining (IFN-gamma, TNF-alpha) ([2]; HLA restriction B15): +

107 (KQQLLRREVY; Human papillomavirus 16) [compound 107]
ELISpot: Immungenicity of the peptide shown by IFN-gamma ELISPOT analysis ([1]; HLA restriction B15): +
rates of immunoactivation in PBMC samples, CD8 T cell responses and/or numbers of HPV16 positive cell lines presenting the peptide as HLA-complexes [1]: highest rates of immunoactivation in PBMC samples, to induce the strongest CD8 T cell responses, and/or shown to be presented as HLA-complexes by the highest numbers of HPV16 positive cell lines
cytokine: Immunogenicity of the peptide shown by intracellular cytokine staining (IFN-gamma, TNF-alpha) ([2]; HLA restriction B15): +

102 (EPDRAHYNIV; Human papillomavirus 16) [compound 102]
ELISpot: Immungenicity of the peptide shown by IFN-gamma ELISPOT analysis ([1]; HLA restriction B07): +
cytokine: Immunogenicity of the peptide shown by intracellular cytokine staining (IFN-gamma, TNF-alpha) ([2]; HLA restriction B07): +

43 (LLMGTLGIVC; Human papillomavirus 16) [compound 43]
ELISpot: Immungenicity of the peptide shown by IFN-gamma ELISPOT analysis ([1]; HLA restriction A02): +
cytokine: Immunogenicity of the peptide shown by intracellular cytokine staining (IFN-gamma, TNF-alpha) ([2]; HLA restriction A02): +

99 (RPRKLPQLCTE; Human papillomavirus 16) [compound 99]
ELISpot: Immungenicity of the peptide shown by IFN-gamma ELISPOT analysis ([1]; HLA restriction B07): +
cytokine: Immunogenicity of the peptide shown by intracellular cytokine staining (IFN-gamma, TNF-alpha) ([2]; HLA restriction B07): +

109 (LQPETTDLY; Human papillomavirus 16) [compound 109]
rates of immunoactivation in PBMC samples, CD8 T cell responses and/or numbers of HPV16 positive cell lines presenting the peptide as HLA-complexes [1]: highest rates of immunoactivation in PBMC samples, to induce the strongest CD8 T cell responses, and/or shown to be presented as HLA-complexes by the highest numbers of HPV16 positive cell lines
cytokine: Immunogenicity of the peptide shown by intracellular cytokine staining (IFN-gamma, TNF-alpha) ([2]; HLA restriction B15): +

84 (PYAVCDKCLKF; Human papillomavirus 16) [compound 84]
ELISpot: Immungenicity of the peptide shown by IFN-gamma ELISPOT analysis ([1]; HLA restriction A24): +
cytokine: Immunogenicity of the peptide shown by intracellular cytokine staining (IFN-gamma, TNF-alpha) ([2]; HLA restriction A24): +

88 (DRAHYNIVTF; Human papillomavirus 16) [compound 88]
ELISpot: Immungenicity of the peptide shown by IFN-gamma ELISPOT analysis ([1]; HLA restriction A24): +
cytokine: Immunogenicity of the peptide shown by intracellular cytokine staining (IFN-gamma, TNF-alpha) ([2]; HLA restriction A24): +

101 (NIRGRWTGRCM; Human papillomavirus 16) [compound 101]
ELISpot: Immungenicity of the peptide shown by IFN-gamma ELISPOT analysis ([1]; HLA restriction B07): +
ELISpot: Immungenicity of the peptide shown by IFN-gamma ELISPOT analysis ([1]; HLA restriction B15): +
cytokine: Immunogenicity of the peptide shown by intracellular cytokine staining (IFN-gamma, TNF-alpha) ([2]; HLA restriction B07): +
cytokine: Immunogenicity of the peptide shown by intracellular cytokine staining (IFN-gamma, TNF-alpha) ([2]; HLA restriction B15): +

64 (AVCDKCLKFYS; Human papillomavirus 16) [compound 64]
ELISpot: Immungenicity of the peptide shown by IFN-gamma ELISPOT analysis ([1]; HLA restriction A11): +
cytokine: Immunogenicity of the peptide shown by intracellular cytokine staining (IFN-gamma, TNF-alpha) ([2]; HLA restriction A11): +

117 (YRHYCYSVY; Human papillomavirus 16) [compound 117]
ELISpot: Immungenicity of the peptide shown by IFN-gamma ELISPOT analysis ([1]; HLA restriction B15): +
cytokine: Immunogenicity of the peptide shown by intracellular cytokine staining (IFN-gamma, TNF-alpha) ([2]; HLA restriction B15): +

67 (MFQDPQERPRK; Human papillomavirus 16) [compound 67]
ELISpot: Immungenicity of the peptide shown by IFN-gamma ELISPOT analysis ([1]; HLA restriction A03): +

119 (LRREVYDFAF; Human papillomavirus 16) [compound 119]
ELISpot: Immungenicity of the peptide shown by IFN-gamma ELISPOT analysis ([1]; HLA restriction B15): +

96 (AHYNIVTF; Human papillomavirus 16) [compound 96]
ELISpot: Immungenicity of the peptide shown by IFN-gamma ELISPOT analysis ([1]; HLA restriction A24): +

77 (RCINCQKPLCP; Human papillomavirus 16) [compound 77]
ELISpot: Immungenicity of the peptide shown by IFN-gamma ELISPOT analysis ([1]; HLA restriction A03): +

129 (KQRHLDKKQRF; Human papillomavirus 16) [compound 129]
ELISpot: Immungenicity of the peptide shown by IFN-gamma ELISPOT analysis ([1]; HLA restriction B15): +

1 (ISEYRHYCY; Human papillomavirus 16) [compound 1]
rates of immunoactivation in PBMC samples, CD8 T cell responses and/or numbers of HPV16 positive cell lines presenting the peptide as HLA-complexes [1]: highest rates of immunoactivation in PBMC samples, to induce the strongest CD8 T cell responses, and/or shown to be presented as HLA-complexes by the highest numbers of HPV16 positive cell lines

105 (KPLCDLLI; Human papillomavirus 16) [compound 105]
ELISpot: Immungenicity of the peptide shown by IFN-gamma ELISPOT analysis ([1]; HLA restriction B07): +

70 (KCLKFYSKI; Human papillomavirus 16) [compound 70]
ELISpot: Immungenicity of the peptide shown by IFN-gamma ELISPOT analysis ([1]; HLA restriction A03): +
